Data set [1] has as its system Parkin. In words: Parkin recruitment to mitochondria, subcellular fractionation and immunoblot. Type of data set: cell-based, human. The settings on record: HEK293 T-REx PINK1 cells, HA-Parkin-IRES-GFP; 5 μM compound 5, CCCP 10 μM or Antimycin A 30 μM. How it is done:
(§1) Inducible stable Flp-In HEK293 T-REx cells expressing PINK1 were described previously.[33] HEK293 T-REx PINK1 and HEK293T cells were grown in DMEM (Gibco) supplemented with 10% (v/v) fetal bovine serum (ThermoFisher), 1% (v/v) GlutaMAX (Gibco), 1% (v/v) sodium pyruvate (Gibco), 125 μg/mL hygromycin (Invitrogen), and 10 μg/mL blasticidin (Gibco) or DMEM supplemented with 10% (v/v) fetal bovine serum, respectively, at 37 °C in 5% (v/v) CO2. For microscopy, cells were seeded on poly-L-lysine (Sigma)-coated slides. Transient plasmid transfections were performed using 25 kDa linear polyethylenimine (Polysciences). Plasmid (100 ng) encoding HA-Parkin-IRES-GFP, mito-mCherry or Parkin-mEGFP, or 500 ng plasmid encoding PGAM5-FLAG were used per 6-well. Total transfected DNA was 2 μg/well. For siRNA transfection, 2 × 10^5 cells were seeded per 6-well and on the next day transfected with 20 nM siRNA-oligonucleotide using lipofectamine RNAiMAX (ThermoFisher). Cells were analyzed 27 h post-transfection or five days post-siRNA-transfection. HEK293 T-REx PINK1 cells were induced with 0.3 μg/mL doxycycline for 24 h before further processing. Hoechst staining (1 μg/mL) was done immediately before adding treatment to the cells. Treatments were administered for the indicated times before processing; CCCP (Sigma) was always used as 10 μM for 3 h and Antimycin A (Sigma) as 30 μM for 3 h.
Unless mentioned otherwise, all steps were performed at 4 °C. For subcellular fractionation to separate cellular content into cytosolic and mitochondrial fractions, cells were washed with PBS, harvested in PBS-EDTA (1 mM EDTA, 0.2 g/L D-glucose), and centrifuged at 500 × g for 5 min. […]
For immunoblot analysis in other cases, cells were either processed as described above or washed with PBS and directly lysed with Tris-glycine SDS-PAGE sample buffer and heated for 15 min at 65 °C. […] For quantification, ImageJ was used (http://rsb.info.nih.gov/ij/). […]
Background: A western blot detects proteins with antibodies after separation by electrophoresis.

A further data set concerns HEK293T cells. In words: JC-1 mitochondrial membrane potential assay. Type of data set: cell-based, human. The settings on record: 5 µM compound 5 or CCCP, at least three hours, compared to DMSO. Here is the method: Staining of cells for the determination of mitochondrial membrane potential was carried out with the JC-1 mitochondrial staining kit (Sigma-Aldrich) according to the kit’s instructions; stained cells were immediately taken to live cell imaging.
(§2) For fixation, cells were incubated for 15 min with 4% formaldehyde (16% formaldehyde diluted in PBS, Thermo Scientific) and washed in PBS. The cover glasses were mounted with Fluoromount-G (Southern Biotech) on microscope slides. All microscopy was performed on an LSM 780 system (Carl Zeiss) with a Plan-APOCHROMAT 63× 1.4NA oil objective (Carl Zeiss) and pinhole settings of 1 AU with the Zeiss ZEN 2010 software. Image processing and analysis was performed using ImageJ (http://rsb.info.nih.gov/ij/). […] Parkin recruitment events to the mitochondria were counted by hand throughout each z-stack and cell. […] JC-1 images were handled as summed intensity z-stack projections, as well as subjected to flatfield correction and subtraction of background before measuring the fluorescence levels normalized to the number of cell nuclei. The fluorescence intensity ratio between the red and green signal was calculated and compared to DMSO as a ratio of 1. Data were evaluated using Excel and GraphPad Prism 6.

Data set [2] has as its system Parkin. In words: Parkin recruitment to mitochondria and mitochondrial morphology, fluorescence microscopy. In kind it is cell-based, human. The settings on record: HEK293 T-REx PINK1 cells, 3 h. Here is the method: as §1
as §2, with “slides.” for “slides. All microscopy was performed on an LSM 780 system (Carl Zeiss) with a Plan-APOCHROMAT 63× 1.4NA oil objective (Carl Zeiss) and pinhole settings of 1 AU with the Zeiss ZEN 2010 software. Image processing and analysis was performed using ImageJ (http://rsb.info.nih.gov/ij/).”

Data set [3] concerns the target T1, GlpG (Escherichia coli, UniProt P09391).
T1 construct: Full-length GlpG with C-terminal His-tag was overexpressed from pET25b + in E. coli C43(DE3); His-tag (C); made in house; host or cells: E. coli C43(DE3)
In kind it is biochemical, E. coli. Here is the method: Emission spectra of aminomethyl coumarin and cleavage of compound 1 were monitored in 50 mM potassium phosphate pH 7.4, 150 mM NaCl, 20% (w/v) glycerol, 0.05% (w/v) PEG8000, 0.05% (w/v) DDM, 10% (w/v) DMSO. The compounds (1 mM) were incubated with 10 μM GlpG WT or S201T, 1 μM elastase, or buffer, respectively, as indicated in the legend of Figure 1A at 37 °C for 1 h. Samples were diluted 8-fold with buffer, and emission spectra were measured in 96-well black HTS plates (Greiner Bio-One) by a plate reader (Tecan Infinite M1000) using an excitation wavelength of 355 nm. Data were evaluated using Excel (Microsoft) and GraphPad Prism 9 (GraphPad Software, Inc.). The data shown are representative of three independent experiments.
(§3) Activity and inhibition assays of GlpG shown in Figure 1B–D were carried out in 50 mM potassium phosphate pH 7.4, 150 mM NaCl, 20% (v/v) glycerol, 0.05% (w/v) PEG8000, 0.05% (w/v) DDM, and 5% (v/v) DMSO. […] All activity measurements were performed at 37 °C in 96-well black HTS plates (Greiner Bio-One) and fluorescence was monitored in a plate reader (Tecan Infinite M1000) with excitation and emission wavelengths set to 355 and 450 nm, respectively, for compound 1, and 335 and 493 nm, respectively, for the transmembrane substrate KSp96. Data were evaluated using Excel (Microsoft) and GraphPad Prism 9 (GraphPad Software, Inc.).
Activity measurements of GlpG with varying DDM concentrations were obtained in 20 mM HEPES (pH 7.4), 150 mM NaCl using 100 nM GlpG, and DDM at the concentration indicated in the graphs. Buffer for measurements with compound 1 contained additionally 5% (v/v) DMSO. Compound 1 and transmembrane substrate were used at 10 μM final concentration. Activity measurements were performed at 37 °C in 96-well black HTS plates (Greiner Bio-One), and fluorescence was monitored in a plate reader (Tecan Infinite M1000) with excitation and emission wavelengths set to 355 and 450 nm for compound 1 and 335 and 493 nm for the transmembrane substrate, respectively. Data were evaluated using Excel (Microsoft) and GraphPad Prism 9 (GraphPad Software, Inc.).

Data set [4] is described as follows: Solubility of fluorogenic substrates in assay buffer (qualitative).
Data set [5] addresses T1, GlpG. Description: Inhibition assay of GlpG with fluorogenic substrate compound 1. Type of data set: biochemical, E. coli. Particulars: detergent-solubilized GlpG 100 nM, substrate compound 1, 1 h preincubation at 37 °C, mean ± SEM of three measurements. How it is done:
as §3

“Also recorded” adds a separate entry of the source. Where a SMILES comes first, the peptide text is derived from it. The star is where a group is joined. AMC = Cc1cc(=O)oc2cc(N*)ccc12

T1 sequence (P09391 whole entry): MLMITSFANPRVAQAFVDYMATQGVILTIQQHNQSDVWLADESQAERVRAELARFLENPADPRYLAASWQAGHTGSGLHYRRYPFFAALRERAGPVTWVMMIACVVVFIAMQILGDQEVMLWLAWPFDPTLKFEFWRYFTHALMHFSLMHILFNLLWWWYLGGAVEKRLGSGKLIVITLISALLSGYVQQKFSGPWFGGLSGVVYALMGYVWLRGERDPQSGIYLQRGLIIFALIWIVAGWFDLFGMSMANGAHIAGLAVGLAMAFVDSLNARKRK

With `N#CC(C#N)=NNc1cccc(Cl)c1` [CCCP, carbonyl cyanide m-chlorophenyl hydrazone], in the data set with Parkin [1], the “Parkin recruitment to the mitochondrial fraction” value is given as “significant recruitment of Parkin to the mitochondrial fraction”. In addition, the “Effect on mitochondrial membrane potential (JC-1 aggregate to monomer ratio)” value in the data set on HEK293T cells is “lowers the membrane potential”. Further, in the data set with Parkin [2], the Mitochondrial morphology result is “severe rounding and clustering”.
`CC(=O)N[C@@H](CCCNC(=N)N)C(=O)N[C@H](C(=O)N[C@@H](CCCNC(=N)N)C(=O)N[C@@H](Cc1c[nH]cn1)C(=O)N[C@@H](C)C(=O)Nc1ccc2c(C)cc(=O)oc2c1)C(C)C` [compound 1, AcRVRHA-4mc] (Ac-RVRHA-{AMC}): at GlpG [3] (GlpG in DDM micelle environment), the “Apparent Michaelis constant for substrate” value was “approximately 500 μM”. The “Michaelis constant KM for substrate” value at GlpG [3] (GlpG, detergent) is given as “about half”. In addition, the “Cleavage of substrate by GlpG” value at GlpG [3] (detergent micelles and/or DIBMA lipid nanodiscs) was “cleaved by GlpG with similar efficiency in lipid nanodiscs and in detergent micelles; also recorded: can be cleaved by active GlpG embedded in polymer nanodiscs”. The Solubility of substrate entry in data set [4] is recorded as “sufficiently soluble to be useable at hundreds of micromolar concentrations”.
`CC(=O)N[C@H](C(=O)N[C@@H](CCCNC(=N)N)C(=O)N[C@@H](Cc1c[nH]cn1)C(=O)N[C@@H](C)C(=O)C(=O)NCCCCc1ccccc1)C(C)C` [compound 2]: the IC50 at GlpG [5] was 132 ± 23 nM.

The IC50 is the midpoint of a concentration-inhibition curve. A low value points to greater potency in that assay.
